In patent US12441689B2 (EpiVario, Inc., priority 2019, dated 2025):

Target: human ACSS2 protein (Homo sapiens (Human), UniProt Q9NR19)
Assay: ACSS2 Cell-Free Activity Assay (Cell-Free IC50)
Conditions: 10 nM human ACSS2 protein, 90 minutes at 37 C, pyrophosphatase-coupled, Biomol Green absorbance at 620 nm; read-out: ACSS2 Biochemical IC50
Excerpt: ACSS2 Cell-Free Activity Assay (Cell-Free IC50)

Sequence of human ACSS2 protein (Q9NR19 whole entry): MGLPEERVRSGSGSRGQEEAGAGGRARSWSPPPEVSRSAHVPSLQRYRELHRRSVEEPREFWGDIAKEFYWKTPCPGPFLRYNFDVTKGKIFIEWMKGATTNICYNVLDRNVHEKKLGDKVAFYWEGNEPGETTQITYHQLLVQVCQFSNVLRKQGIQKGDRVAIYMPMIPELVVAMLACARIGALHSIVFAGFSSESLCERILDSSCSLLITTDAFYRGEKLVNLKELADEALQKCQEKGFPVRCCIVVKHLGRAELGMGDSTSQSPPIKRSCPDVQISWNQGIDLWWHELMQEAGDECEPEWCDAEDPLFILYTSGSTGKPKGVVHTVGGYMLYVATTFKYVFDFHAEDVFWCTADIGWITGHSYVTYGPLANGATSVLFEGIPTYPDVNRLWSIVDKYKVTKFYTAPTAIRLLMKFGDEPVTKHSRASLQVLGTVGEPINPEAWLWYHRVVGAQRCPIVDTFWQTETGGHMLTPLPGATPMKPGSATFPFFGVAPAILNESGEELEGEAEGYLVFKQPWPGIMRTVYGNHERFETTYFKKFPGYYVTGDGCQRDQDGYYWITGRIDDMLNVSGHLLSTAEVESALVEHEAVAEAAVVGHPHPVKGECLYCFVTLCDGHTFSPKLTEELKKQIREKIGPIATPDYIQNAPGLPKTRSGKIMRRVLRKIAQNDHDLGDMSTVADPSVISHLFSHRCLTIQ

| Compound | IC50 |
| --- | --- |
| Cc1cc(-c2ccccc2)cc(-c2nc(C)cc(C(=O)Nc3cccc(C(C)(F)F)c3)n2)c1 [Compound 219, N-(3-(1,1-difluoroethyl)phenyl)-6-methyl-2-(5-methyl-[1,1’-biphenyl]-3-yl)pyrimidine-4-carboxamide] | > 100 nM |
| CCc1nn(-c2ccc(OC(F)F)cc2)c(C)c1C(=O)Nc1cccc(C(C)(F)F)c1 [Compound 155, N-(3-(1,1-difluoroethyl)phenyl)-1-(4-(difluoromethoxy)phenyl)-3-ethyl-5-methyl-1H-pyrazole-4-carboxamide] | > 100 nM |
| CCC(F)(F)c1cccc(NC(=O)c2cc(-c3ccc(OC(F)F)c(-c4ccccc4)c3)[nH]c2C)c1 [Compound 217, 5-[4-(difluoromethoxy)-3-phenyl-phenyl]-N-[3-(1,1-difluoropropyl)phenyl]-2-methyl-1H-pyrrole-3-carboxamide] | > 100 nM |
| CCC(F)(F)c1cccc(NC(=O)c2cnc(-c3ccc(OC(F)F)cc3)nc2C)c1 [Compound 143, 2-[4-(difluoromethoxy)phenyl]-N-[3-(1,1-difluoropropyl)phenyl]-4-methyl-pyrimidine-5-carboxamide] | > 100 nM |
| Cc1nn(-c2ccc(OC(F)F)c(-c3ccccn3)c2)c(C)c1C(=O)Nc1cccc(C(C)(F)F)c1 [Compound 177, N-(3-(1,1-difluoroethyl)phenyl)-1-(4-(difluoromethoxy)-3-(pyridin-2-yl)phenyl)-3,5-dimethyl-1H-pyrazole-4-carboxamide] | 1 to 100 nM |
| Cc1nn(-c2ccc(OC(F)F)c(-c3ccccc3)c2)c(C)c1C(=O)Nc1cccc(C(C)(F)F)c1 [Compound 178] | 1 to 100 nM |
| Cc1nn(-c2ccc(OC(F)F)c(-c3ccncc3)c2)cc1C(=O)Nc1cccc(C(C)(F)F)c1 [Compound 181, N-(3-(1,1-difluoroethyl)phenyl)-1-(4-(difluoromethoxy)-3-(pyridin-4-yl)phenyl)-3-methyl-1H-pyrazole-4-carboxamide] | 1 to 100 nM |
| Cc1nn(-c2ccc(OC(F)F)cc2)c(CO)c1C(=O)Nc1cccc(C(C)(F)F)c1 [Compound 194, N-[3-(1,1-difluoroethyl)phenyl]-1-[4-(difluoromethoxy)phenyl]-5-(hydroxymethyl)-3-methyl-pyrazole-4-carboxamide] | 1 to 100 nM |
| COc1c(CC2CCCCC2)cc(N2N=C(C)C(C(=O)Nc3cccc(C(C)(F)F)c3)C2=O)cc1-c1ccccc1 (centres unmarked) [Compound 129, 1-(5-(cyclohexylmethyl)-6-methoxy-[1,1′-biphenyl]-3-yl)-N-(3-(1,1-difluoroethyl)phenyl)-3-methyl-5-oxo-4,5-dihydro-1H-pyrazole-4-carboxamide] | 1 to 100 nM |
| CC(=O)c1c(C(=O)Nc2cccc(C(C)(F)F)c2)c(C)nn1-c1ccc(OC(F)F)cc1 [Compound 193, 5-acetyl-N-(3-(1,1-difluoroethyl)phenyl)-1-(4-(difluoromethoxy)phenyl)-3-methyl-1H-pyrazole-4-carboxamide] | > 100 nM |
| Cc1cc(C(=O)Nc2cccc(C(C)(F)F)c2)nc(-c2ccc(OC(F)F)c(-c3ccccc3)c2)n1 [Compound 130, N-(3-(1,1-difluoroethyl)phenyl)-2-(6-(difluoromethoxy)-[1,1′-biphenyl]-3-yl)-6-methylpyrimidine-4-carboxamide] | 1 to 100 nM |
| CCc1c(C(=O)Nc2cccc(C(C)(F)F)c2)c(C)nn1-c1ccc(OC(F)F)c(-c2ccccn2)c1 [Compound 148, N-[3-(1,1-difluoroethyl)phenyl]-1-[4-(difluoromethoxy)-3-(2-pyridyl)phenyl]-5-ethyl-3-methyl-pyrazole-4-carboxamide] | > 100 nM |
| Cc1nn(-c2ccc(OC(F)F)cc2)c(OC(=O)N2CCC(N3CCCCC3)CC2)c1C(=O)Nc1cccc(C(C)(F)F)c1 [Compound 189, 4-((3-(1,1-difluoroethyl)phenyl)carbamoyl)-1-(4-(difluoromethoxy)phenyl)-3-methyl-1H-pyrazol-5-yl [1,4′-bipiperidine]-1′-carboxylate] | 1 to 100 nM |
| CC1=NN(c2ccc(OC(F)F)cc2)C(=O)C1(C)C(=O)Nc1cc(F)cc(Cl)c1 (centres unmarked) [Compound 166, N-(3-chloro-5-fluoro-phenyl)-1-[4-(difluoromethoxy)phenyl]-3,4-dimethyl-5-oxo-pyrazole-4-carboxamide] | > 100 nM |
| COc1c(Cc2ccc(O)cc2)cc(N2N=C(C)C(C(=O)Nc3cccc(C(C)(F)F)c3)C2=O)cc1-c1ccccc1 (centres unmarked) [Compound 228, N-(3-(1,1-difluoroethyl)phenyl)-1-(5-(4-hydroxybenzyl)-6-methoxy-[1,1′-biphenyl]-3-yl)-3-methyl-5-oxo-4,5-dihydro-1H-pyrazole-4-carboxamide] | 1 to 100 nM |
| CCC(F)(F)c1cccc(NC(=O)c2cc(C)nc(-c3ccc(OC(F)F)cc3)c2)c1 [Compound 102, 2-[4-(difluoromethoxy)phenyl]-N-[3-(1,1-difluoropropyl)phenyl]-6-methyl-pyridine-4-carboxamide] | > 100 nM |
| Cc1nn(-c2ccc(OC(F)F)c(-c3cccnc3)c2)c(OC(=O)N2CCN(CCO)CC2)c1C(=O)Nc1cccc(C(C)(F)F)c1 [Compound 187, 4-((3-(1,1-difluoroethyl)phenyl)carbamoyl)-1-(4-(difluoromethoxy)-3-(pyridin-3-yl)phenyl)-3-methyl-1H-pyrazol-5-yl 4-(2-hydroxyethyl)piperazine-1-carboxylate] | > 100 nM |
| Cc1nc(-c2ccc(OC(F)F)c(-c3ccccc3)c2)cnc1C(=O)Nc1cccc(C(C)(F)F)c1 [Compound 135, N-[3-(1,1-difluoroethyl)phenyl]-5-[4-(difluoromethoxy)-3-phenyl-phenyl]-3-methyl-pyrazine-2-carboxamide] | 1 to 100 nM |
| Cc1nn(-c2ccc(OC(F)F)cc2)c(C(F)(F)F)c1C(=O)Nc1cccc(C(C)(F)F)c1 [Compound 192, N-(3-(1,1-difluoroethyl)phenyl)-1-(4-(difluoromethoxy)phenyl)-3-methyl-5-(trifluoromethyl)-1H-pyrazole-4-carboxamide] | 1 to 100 nM |
| Cc1nc(-c2ccc(OC(F)F)cc2)oc1C(=O)Nc1cccc(C(C)(F)F)c1 [Compound 141, N-(3-(1,1-difluoroethyl)phenyl)-2-(4-(difluoromethoxy)phenyl)-4-methyloxazole-5-carboxamide] | > 100 nM |
| CC1=NN(c2ccc(OC(C)C)cc2)C(=O)C1(F)C(=O)Nc1cccc(C(C)(F)F)c1 (centres unmarked) [Compound 208, N-(3-(1,1-difluoroethyl)phenyl)-4-fluoro-1-(4-isopropoxyphenyl)-3-methyl-5-oxo-4,5-dihydro-1H-pyrazole-4-carboxamide] | < 1 nM |
| CC1=NN(c2ccc(OC(F)F)cc2)C(=O)C1(C)C(=O)Nc1cccc(C(C)(F)F)c1 (centres unmarked) [Compound 174, N-(3-(1,1-difluoroethyl)phenyl)-1-(4-(difluoromethoxy)phenyl)-3,4-dimethyl-5-oxo-4,5-dihydro-1H-pyrazole-4-carboxamide] | > 100 nM |
| Cc1nn(-c2ccc(OC(F)F)cc2)c(F)c1C(=O)Nc1cccc(C(C)(F)F)c1 [Compound 200, N-(3-(1,1-difluoroethyl)phenyl)-1-(4-(difluoromethoxy)phenyl)-5-fluoro-3-methyl-1H-pyrazole-4-carboxamide] | > 100 nM |
